What all share (format): biochemical
Holding throughout (settings): 1 μM inhibitor concentration

Assay [1] concerns the target RSK2 (Homo sapiens (Human), UniProt P51812). Briefly: RSK2 kinase selectivity assay. The procedure:
MAPKAP-K1b (5-20 mU diluted in 20 mM MOPS pH 7.5, 1 mM EDTA, 0.01% Brij35, 5% glycerol, 0.1% b-mercaptoethanol, 1 mg/ml BSA) is assayed against substrate peptide ([…]) in a final volume of […] containing 50 mM Na-b-glycerophosphate (pH 7.5), 0.5 mM EDTA, 30 μM substrate peptide, 10 mM magnesium acetate and 0.05 mM [33P-g-ATP] (50-1000 cpm/pmole) and incubated for 30 min at room temperature. Assays are stopped by addition of 5 μl of 0.5 M (3%) orthophosphoric acid and then harvested onto P81 Unifilter plates with a wash buffer of 50 mM orthophosphoric acid.

Assay [2] addresses S6K1 (Homo sapiens (Human), UniProt P23443). Briefly: S6K1 kinase selectivity assay. The procedure:
S6K1/P70 S6K (5-20 mU diluted in 20 mM MOPS pH 7.5, 1 mM EDTA, 0.01% Brij35, 5% glycerol, 0.1% b-mercaptoethanol, 1 mg/ml BSA) is assayed against substrate peptide ([…]) in a final volume of 25.5 μl containing 8 mM MOPS pH 7.0, 0.2 mM EDTA, 0.1 mM substrate peptide, 10 mM magnesium acetate and 0.02 mM [33P-g-ATP] (50-1000 cpm/pmole) and incubated for 30 min at room temperature. Assays are stopped by addition of 5 μl of 0.5 M (3%) orthophosphoric acid and then harvested onto P81 Unifilter plates with a wash buffer of 50 mM orthophosphoric acid.

Assay [3] addresses PKA (Homo sapiens (Human), UniProt P17612). Briefly: PKA kinase selectivity assay. The procedure: PKA (5-20 mU diluted in 20 mM MOPS pH 7.5, 1 mM EDTA, 0.01% Brij35, 0.1% b-mercaptoethanol, 1 mg/ml BSA) is assayed against Kemptide (LRRASLG) in a final volume of 25.5 μl containing 8 mM MOPS pH 7.5, 0.2 mM EDTA, 30 μM substrate peptide, 10 mM magnesium acetate and 0.005 mM [33P-g-ATP] (50-1000 cpm/pmole) and incubated for 30 min at room temperature. Assays are stopped by addition of 5 μl of 0.5 M (3%) orthophosphoric acid and then harvested onto P81 Unifilter plates with a wash buffer of 50 mM orthophosphoric acid.

In assay [4] the target is MNK1 (Homo sapiens (Human), UniProt Q9BUB5). Briefly: MNK1 kinase selectivity assay. The procedure: 5-20 mU of MNK1 (diluted in 50 mM Tris (pH 7.5), 0.1 mM EGTA, 1 mg/ml BSA, 0.1%, b-Mercaptoethanol) is assayed against substrate peptide (eIF4E) in a final volume of 25.5p1 containing 50 mM Tris (pH 7.5), 0.1 mM EGTA, 0.1%, b-Mercaptoethanol, 0.5 mg/ml substrate peptide, 10 mM magnesium acetate and 0.05 mM [33P-g-ATP](500-1000 cpm/pmole) and incubated for 30 mins at room temperature. Assays are stopped by addition of 5p1 of 0.5M (3%) orthophosphoric acid. Assays are harvested onto P81 Unifilter plates using a wash buffer of 50 mM orthophosphoric acid.

Assay [5] deals with PRAK (Homo sapiens (Human), UniProt Q8IW41). In words: PRAK kinase selectivity assay. The procedure: PRAK (5-20 mU diluted in 50 mM Na-b-glycerophosphate pH 7.5, 0.1 mM EGTA, 0.1% b-mercaptoethanol, 1 mg/ml BSA) is assayed against […] in a final volume of 25.5 μl containing 50 mM Na-b-glycerophosphate pH 7.5, 0.1 mM EGTA, 30 μM substrate peptide, 10 mM magnesium acetate and 0.02 mM [33P-g-ATP] (50-1000 cpm/pmole) and incubated for 30 min at room temperature. Assays are stopped by addition of 5 μl of 0.5 M (3%) orthophosphoric acid and then harvested onto P81 Unifilter plates with a wash buffer of 50 mM orthophosphoric acid.

The target in assay [6] is CAMK1 (Homo sapiens (Human), UniProt Q14012). In words: CAMK1 kinase selectivity assay. The procedure:
5-20 mU of CAMK-1 (diluted in 50 mM Tris (pH 7.5), 0.1 mM EGTA, 1 mg/ml BSA, 0.1%, b-Mercaptoethanol) is assayed against substrate peptide ([…]) in a final volume of 25.5 μl containing 50 mM Tris (pH 7.5), 0.1 mM EGTA, 0.5 mM CaCl2, 0.3 μM calmodulin, 0.1%, b-Mercaptoethanol, 300 μM substrate peptide, 10 mM magnesium acetate and 0.05 mM [33P-g-ATP](500-1000 cpm/pmole) and incubated for 30 mins at room temperature. Assays are stopped by addition of […] of 0.5M (3%) orthophosphoric acid. Assays are harvested onto P81 Unifilter plates using a wash buffer of 50 mM orthophosphoric acid.

Assay [7] has as its target SYK (Homo sapiens (Human), UniProt P43405). Briefly: SYK kinase selectivity assay. The procedure: SYK (5-20 mU diluted in 50 mM Tris pH 7.5, 0.1 mM EGTA, 1 mg/ml BSA) is assayed against a substrate peptide (Poly Glut Tyr) in a final volume of 25.5 μl containing 50 mM Tris pH 7.5, 1 mg/ml substrate peptide, 10 mM magnesium acetate and 0.02 mM [33P-g-ATP] (50-1000 cpm/pmole) and incubated for 30 min at room temperature. Assays are stopped by addition of 5 μl of 0.5 M (3%) orthophosphoric acid and then harvested onto P81 Unifilter plates with a wash buffer of 50 mM orthophosphoric acid.

The target in assay [8] is EPH-B3 (Homo sapiens (Human), UniProt P54753). In words: EPH-B3 kinase selectivity assay. The procedure:
EPH-B3 (5-20 mU diluted in 50 mM Tris pH 7.5, 0.1 mM EGTA, 1 mg/ml BSA) is assayed against a substrate peptide (Poly Glut Tyr) in a final volume of 25.5 μl containing 50 mM Tris pH 7.5, 1 mg/ml substrate peptide, 10 mM magnesium acetate and 0.005 mM [33P-g-ATP] (50-1000 cpm/pmole) and incubated for 30 min at room temperature. Assays are stopped by addition of 5 μl of 0.5 M (3%) orthophosphoric acid and then harvested onto P81 Unifilter plates with a wash buffer of 50 mM orthophosphoric acid.

Each structure is given as a SMILES string.

Sequence of PRAK (Q8IW41 whole entry, species assumed): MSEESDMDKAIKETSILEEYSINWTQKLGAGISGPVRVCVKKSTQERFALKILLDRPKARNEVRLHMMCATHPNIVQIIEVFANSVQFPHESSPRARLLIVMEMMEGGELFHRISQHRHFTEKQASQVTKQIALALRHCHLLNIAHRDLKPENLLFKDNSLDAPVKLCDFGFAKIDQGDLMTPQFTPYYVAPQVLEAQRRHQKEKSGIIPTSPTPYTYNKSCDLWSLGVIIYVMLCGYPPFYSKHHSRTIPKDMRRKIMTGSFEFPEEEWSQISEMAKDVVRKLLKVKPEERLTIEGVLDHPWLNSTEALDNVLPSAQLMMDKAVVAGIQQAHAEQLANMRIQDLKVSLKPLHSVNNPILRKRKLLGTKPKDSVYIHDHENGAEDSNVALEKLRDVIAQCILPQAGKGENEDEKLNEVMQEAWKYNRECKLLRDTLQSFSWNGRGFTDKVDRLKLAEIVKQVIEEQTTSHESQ
Sequence of S6K1 (P23443 whole entry, species assumed): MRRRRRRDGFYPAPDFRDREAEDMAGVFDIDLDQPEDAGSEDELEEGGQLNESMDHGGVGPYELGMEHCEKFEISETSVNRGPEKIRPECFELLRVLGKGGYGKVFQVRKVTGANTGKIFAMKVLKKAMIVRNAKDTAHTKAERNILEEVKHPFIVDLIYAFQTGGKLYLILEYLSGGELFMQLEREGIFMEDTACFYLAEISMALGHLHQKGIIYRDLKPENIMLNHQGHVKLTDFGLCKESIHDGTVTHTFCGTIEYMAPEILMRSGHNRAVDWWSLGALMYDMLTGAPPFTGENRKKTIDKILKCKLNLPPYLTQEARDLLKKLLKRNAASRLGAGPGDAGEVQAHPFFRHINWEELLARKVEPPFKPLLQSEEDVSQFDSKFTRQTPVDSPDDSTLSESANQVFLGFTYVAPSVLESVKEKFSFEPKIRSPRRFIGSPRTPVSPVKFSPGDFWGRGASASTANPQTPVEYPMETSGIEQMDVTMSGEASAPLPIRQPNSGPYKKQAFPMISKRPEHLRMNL
Sequence of MNK1 (Q9BUB5 whole entry, species assumed): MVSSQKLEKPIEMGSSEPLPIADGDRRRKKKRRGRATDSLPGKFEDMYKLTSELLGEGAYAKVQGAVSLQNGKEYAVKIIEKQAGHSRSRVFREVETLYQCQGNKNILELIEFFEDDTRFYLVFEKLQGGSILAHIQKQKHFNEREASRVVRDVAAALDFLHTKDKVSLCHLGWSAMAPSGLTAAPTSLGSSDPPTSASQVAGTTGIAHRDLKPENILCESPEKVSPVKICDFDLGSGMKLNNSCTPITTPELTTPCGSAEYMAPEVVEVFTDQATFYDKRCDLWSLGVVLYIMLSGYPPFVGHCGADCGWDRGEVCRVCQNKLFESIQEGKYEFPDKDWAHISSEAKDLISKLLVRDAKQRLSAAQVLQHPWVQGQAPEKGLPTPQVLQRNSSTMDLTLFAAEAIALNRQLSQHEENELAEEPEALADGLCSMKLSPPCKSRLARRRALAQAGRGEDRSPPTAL
Sequence of EPH-B3 (P54753 34-998, species assumed): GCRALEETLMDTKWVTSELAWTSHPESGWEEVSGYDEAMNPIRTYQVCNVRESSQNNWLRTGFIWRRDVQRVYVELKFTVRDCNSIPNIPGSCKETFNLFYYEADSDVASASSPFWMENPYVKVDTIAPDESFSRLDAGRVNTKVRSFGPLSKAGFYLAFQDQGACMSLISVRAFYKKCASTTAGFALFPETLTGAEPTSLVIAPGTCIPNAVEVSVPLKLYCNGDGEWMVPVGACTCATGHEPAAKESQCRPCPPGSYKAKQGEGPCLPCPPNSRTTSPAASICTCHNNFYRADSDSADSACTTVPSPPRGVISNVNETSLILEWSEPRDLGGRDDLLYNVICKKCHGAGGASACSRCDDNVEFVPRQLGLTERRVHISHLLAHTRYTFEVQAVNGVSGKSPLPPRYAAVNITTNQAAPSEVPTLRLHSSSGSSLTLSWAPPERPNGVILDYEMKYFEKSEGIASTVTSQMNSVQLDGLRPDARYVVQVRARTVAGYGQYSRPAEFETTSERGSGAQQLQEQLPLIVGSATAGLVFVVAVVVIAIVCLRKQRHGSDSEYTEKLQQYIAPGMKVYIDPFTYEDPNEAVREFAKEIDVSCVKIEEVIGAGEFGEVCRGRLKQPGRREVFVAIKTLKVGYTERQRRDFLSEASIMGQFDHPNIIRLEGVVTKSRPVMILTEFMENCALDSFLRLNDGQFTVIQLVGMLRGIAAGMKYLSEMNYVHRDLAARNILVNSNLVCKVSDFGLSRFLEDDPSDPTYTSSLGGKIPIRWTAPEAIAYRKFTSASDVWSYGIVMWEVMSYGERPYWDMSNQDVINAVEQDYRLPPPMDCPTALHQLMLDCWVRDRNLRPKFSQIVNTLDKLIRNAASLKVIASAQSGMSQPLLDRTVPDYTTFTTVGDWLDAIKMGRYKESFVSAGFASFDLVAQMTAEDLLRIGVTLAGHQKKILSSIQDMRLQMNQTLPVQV
Sequence of RSK2 (P51812 whole entry, species assumed): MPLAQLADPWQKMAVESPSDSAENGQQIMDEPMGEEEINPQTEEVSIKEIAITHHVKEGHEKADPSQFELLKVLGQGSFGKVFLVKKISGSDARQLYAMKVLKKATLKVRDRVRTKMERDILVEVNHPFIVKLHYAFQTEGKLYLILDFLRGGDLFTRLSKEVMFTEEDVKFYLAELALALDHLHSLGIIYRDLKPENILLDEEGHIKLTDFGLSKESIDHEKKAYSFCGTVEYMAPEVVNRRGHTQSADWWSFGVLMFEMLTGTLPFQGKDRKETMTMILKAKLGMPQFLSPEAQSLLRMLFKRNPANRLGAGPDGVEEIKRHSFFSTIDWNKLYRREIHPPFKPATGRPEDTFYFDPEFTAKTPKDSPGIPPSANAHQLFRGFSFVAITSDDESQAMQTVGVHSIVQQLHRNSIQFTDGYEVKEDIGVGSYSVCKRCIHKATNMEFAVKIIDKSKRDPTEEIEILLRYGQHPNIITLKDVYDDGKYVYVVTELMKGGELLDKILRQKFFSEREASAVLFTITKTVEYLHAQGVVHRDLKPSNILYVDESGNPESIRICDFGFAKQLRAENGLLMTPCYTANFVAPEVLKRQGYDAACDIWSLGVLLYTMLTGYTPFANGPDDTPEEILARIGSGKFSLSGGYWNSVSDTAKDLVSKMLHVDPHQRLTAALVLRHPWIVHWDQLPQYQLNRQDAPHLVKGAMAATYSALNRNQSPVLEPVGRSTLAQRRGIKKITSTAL

With `c1cc2[nH]nc3c2c(n1)N(C1CCC1)CCC3` [Example 22, 6-cyclobutyl-6,7,8,9-tetrahydro-2H-1,2,5,6-tetraazabenzo[cd]azulene], the “percentage inhibition of RSK2” value in assay [1] came out at 8 percentage. Moreover, the “percentage inhibition of S6K1” value in assay [2] was 0 percentage. Moreover, in assay [3], the “percentage inhibition of PKA” value is 0 percentage. Besides, the “percentage inhibition of MNK1” value in assay [4] was determined as 0 percentage. In assay [5], the “percentage inhibition of PRAK” value stood at 0 percentage. In assay [6], the “percentage inhibition of CAMK1” value was 0 percentage. The “percentage inhibition of SYK” value in assay [7] was 0 percentage. Moreover, in assay [8], the “percentage inhibition of EPH-B3” value turned out to be 0 percentage.

As for `c1cc2[nH]nc3c2c(n1)N(C1CCCC1)CCC3` [Example 23, 6-cyclopentyl-6,7,8,9-tetrahydro-2H-1,2,5,6-tetraazabenzo[cd]azulene], the “percentage inhibition of RSK2” value in assay [1] stood at 5 percentage. The “percentage inhibition of S6K1” value in assay [2] is 0 percentage. The “percentage inhibition of PKA” value in assay [3] came to 0 percentage. Also, the “percentage inhibition of MNK1” value in assay [4] is on record as 0 percentage. In addition, the “percentage inhibition of PRAK” value in assay [5] turned out to be 0 percentage. For the same molecule, in assay [6], the “percentage inhibition of CAMK1” value turned out to be 0 percentage. Also, the “percentage inhibition of SYK” value in assay [7] is listed as 0 percentage. Also, the “percentage inhibition of EPH-B3” value in assay [8] is reported as 0 percentage.

Consider `c1cc2[nH]nc3c2c(n1)N(C1CCOCC1)CCC3` [Example 29, 6-(tetrahydro-2H-pyran-4-yl)-6,7,8,9-tetrahydro-2H-1,2,5,6-tetraazabenzo[cd]azulene], for which the “percentage inhibition of RSK2” value in assay [1] was 0 percentage. In assay [2], the “percentage inhibition of S6K1” value is given as 2 percentage. Also, the “percentage inhibition of PKA” value in assay [3] is given as 0 percentage. In addition, the “percentage inhibition of MNK1” value in assay [4] is recorded as 0 percentage. Also, the “percentage inhibition of PRAK” value in assay [5] is on record as 0 percentage. Further, the “percentage inhibition of CAMK1” value in assay [6] stood at 0 percentage. In addition, the “percentage inhibition of SYK” value in assay [7] was determined as 0 percentage. Moreover, the “percentage inhibition of EPH-B3” value in assay [8] amounted to 0 percentage.

For the molecule `CN1CCC(N2Cc3ccccc3-c3n[nH]c4ccnc2c34)CC1` [Example 55], the “percentage inhibition of RSK2” value in assay [1] is listed as 21 percentage. Moreover, the “percentage inhibition of S6K1” value in assay [2] was determined as 17 percentage. Besides, the “percentage inhibition of PKA” value in assay [3] was 0 percentage. For the same molecule, the “percentage inhibition of MNK1” value in assay [4] is 50 percentage. In addition, the “percentage inhibition of PRAK” value in assay [5] came out at 18 percentage. Further, the “percentage inhibition of CAMK1” value in assay [6] was 25 percentage. In assay [7], the “percentage inhibition of SYK” value is recorded as 0 percentage. The “percentage inhibition of EPH-B3” value in assay [8] amounted to 12 percentage.

On to `CC(C)n1ncc2c1CN(C1CCN(C)CC1)c1nccc3[nH]nc-2c13` [Example 68], for which the “percentage inhibition of RSK2” value in assay [1] is on record as 54 percentage. Besides, the “percentage inhibition of S6K1” value in assay [2] was 0 percentage. Besides, the “percentage inhibition of PKA” value in assay [3] is 0 percentage. Moreover, the “percentage inhibition of MNK1” value in assay [4] amounted to 1 percentage. Also, the “percentage inhibition of PRAK” value in assay [5] stood at 13 percentage. Moreover, the “percentage inhibition of CAMK1” value in assay [6] was determined as 45 percentage. The “percentage inhibition of SYK” value in assay [7] is 1 percentage. In assay [8], the “percentage inhibition of EPH-B3” value is reported as 5 percentage.

The values above are taken from patent US10918645B2 (LIFEARC, priority 2016, dated 2021).
